# Measured values reported in US20170224679A1, “Use of CXCR2 Antagonists For The Prevention and/or Treatment of Chemotherapy Induced Peripheral Neuropathy (CIPN)” (GlaxoSmithKline Intellectual Property Development Limited, priority 2014, published 2017).
# How the values were obtained:
# [1] = target: T1, CXCR2 receptor (Homo sapiens, UniProt P25025); experiment: CXCR2 Tango assay; type: cell-based; set-up: fused on or other part: TEV protease cleavage site and Gal4-VP16 transcription factor fused to the receptor (Invitrogen Tango construct); no part of the key; details: Tango reporter gene, 80 nM hCXCL1; read-out: pIC50 against the CXCR2 receptor (converted)
# T1 sequence (P25025 1-360): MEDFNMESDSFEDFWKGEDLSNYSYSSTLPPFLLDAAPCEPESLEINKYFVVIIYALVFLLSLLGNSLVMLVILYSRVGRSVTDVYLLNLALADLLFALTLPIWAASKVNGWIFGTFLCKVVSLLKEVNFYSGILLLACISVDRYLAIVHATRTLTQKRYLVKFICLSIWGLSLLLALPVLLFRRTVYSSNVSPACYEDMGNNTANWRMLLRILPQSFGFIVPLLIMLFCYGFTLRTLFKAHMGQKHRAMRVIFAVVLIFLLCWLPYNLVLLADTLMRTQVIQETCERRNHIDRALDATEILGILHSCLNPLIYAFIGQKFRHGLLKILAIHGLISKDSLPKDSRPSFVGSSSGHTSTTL
# Text: The assay measures ligand-induced activation of the receptor CXCR2 in a stable cell line containing the recombinant human CXCR2 linked to a TEV protease site and a Gal4-VP16 transcription factor (Invitrogen). Ligand binding to the receptor results in the recruitment of arrestin proteins (tagged with protease) to the receptor and triggers the release of a tethered transcription factor. The transcription factor enters the nucleus and activates the transcription of the reporter gene. The ability of a compound to inhibit CXCR2 activation is indirectly assessed by measuring the reporter gene activity.
# A vial of cryopreserved cells was removed from liquid nitrogen and rapidly thawed in a water bath at 37° C. with gentle agitation. The cell contents were collected and resuspended in Assay Medium at a density of ˜200,000 cells/ml. All test compounds were dissolved in DMSO at a concentration of 10 mM and then were serially diluted to generate a 10-point dose response curve into 384-well assay plate (Greiner 781090) using an Echo (Labcyte) concentration-response program (50 nl/well). The cell-free, un-stimulated and positive controls were loaded with 50 nl/well pure DMSO to ensure that the DMSO concentration was constant across the plate for all assays. Using Multi-drop Combi (Thermo) with standard cassette, 50 μl of Assay Medium was added to cell-free control wells in compound-containing assay plate; 50 μl of the cell suspension without hCXCL1 (a CXCR2 ligand) was added to un-stimulated control wells (10,000 cells per well); and 50 μl of the cell suspension with 80 nM hCXCL1 was added to the rest of wells of the assay plate (10,000 cells per well). The cells were incubated overnight at 37° C./5% CO2·10 μl of 6× substrate mixture (LiveBLAzer™-FRET B/G substrate (CCF4-AM) Cat #K1096 from Invitrogen, Inc.) was added to each well using Multi-drop Combi (Thermo) with small-tube cassette and the plate was incubated at room temperature for 2 h in the dark. The plate was then read on EnVision using one excitation channel (409 nm) and two emission channels (460 nm and 530 nm).
# The blue/green emission ratio (460 nm/530 nm) was calculated for each well by dividing the background-subtracted Blue emission values by the background-subtracted Green emission values. The dose response curve was based on sigmoidal dose-response model. All ratio data was normalized based upon the maximum emission ratio of positive control (hCXCL1) and minimum emission ratio of negative control (DMSO) on each plate.
# [2] = tested on: HCT116 cell line; experiment: Colorectal cancer cell line proliferation assay, HCT116; type: cell-based; details: HCT116, 72 hours
# Description: Cell proliferation assay: Cells were seeded in 96-well plates (Costar) at different cell densities: HCT116, 500 cells per well; Caco-2, 1000 cells per well. Total volume of the medium was 90 μl per well. Cells were incubated for 24 hours at 37° C. and 5% CO2 incubator. […] The final concentration of the Compound of Formula (A) was 8.5 μM. […] The cell proliferation rate was measured by adding 100 μl of CellTiter-Glo™ (Promega) according to the manufacturer's instructions. After 10 minutes of incubation, the cell lysates were transferred into OptiPlate-384 well, the luminescence was recorded by BioTek Synergy™ 4 Hybrid Microplate Reader with Gen5 software. All data points were generated in five replicates. Three independent experiments were performed. […] All data were presented as the mean±standard error of the mean determined from three independent experiments.
# [3] = tested on: Sprague-Dawley rats; experiment: CXCR2 antagonist effect on repeat dosing oxaliplatin induced sensory injury rat; details: Veh/Oxa rats, 4 mg/kg i.p. twice per week for 4 weeks, Day 29-31, mean±SEM
# Description: Male Sprague-Dawley rats (109-167 g, ˜5weeks old) were housed in cages in groups of three in a controlled environment of constant temperature and moisture (temperature: 25±3° C., light: dark cycle of 12:12 hours) with food (25 g/rat/day of LabDiet 5053) and water available ad libitum.
# MC (Sigma Cat #423238) was made up in water at 1% (w/v) (1 g per 100 mL water) and left on a stirrer until completely dissolved. The formulation was prepared every 6-8 days in 400-700 mL each time and stored at 4° C. protected from light. The dosing volume used was 10 mL/kg to give a 20 mg/kg p.o. dose. Vehicle treated animals were dosed b.i.d. with 1% MC w/v at 10 mL/kg p.o.
# A fresh solution was prepared before every injection. Control vehicle animals were treated with 5% w/v Gluclose at 5ml/kg. Glucose (Sigma Aldrich Cat #G7021) was made up in milli-Q water at 5% (w/v) (5 g per 100 mL water) and left on a stirrer until completely dissolved.
# Body weight tracking: The bodyweights of rats were measured twice a week for 4 weeks on Days 1, 3, 9, 11, 16, 18, 23, and 25. […]
# Rats were anesthetized with chloral hydrate (350 mg/kg, 3.5 mL/kg, i.p.). […] The right sciatic nerve was carefully identified and conduction velocity was measured by recording action potentials from an electrode placed between the second and third digits as described by Jamieson et al., Br. J. Cancer, 88(12):1942-7 (2003), and electrically stimulating the nerve (5V, 0.5 s, single-wave pulses) via a platinum wire electrode at the sciatic notch and ankle. The length between the sciatic notch and ankle was measured.
# The nerve conduction velocity was calculated as the length between sciatic notch and ankle divided by the difference between the time latencies at the stimulation sites [latency (sciatic notch)−latency (ankle)].
# A 1 cm segment of the left sciatic nerve (distal end) was located and carefully dissected out. […] The ratio of inner area over entire area of nerve fibers of sciatic nerves was then calculated as an indicator of thickness of myelin sheath of nerves.
# [4] = target: T2, CXCR1 receptor (Homo sapiens, UniProt P25024); experiment: Receptor binding assay ([125I] IL-8 SPA), CXCR1; set-up: expressed in transfected cells; host or cells: CHO cells (membranes); details: [125I] IL-8 binding, CHO-CXCR1 membranes; read-out: pIC50 against the CXCR1 receptor (converted)
# T2 sequence (P25024 1-350): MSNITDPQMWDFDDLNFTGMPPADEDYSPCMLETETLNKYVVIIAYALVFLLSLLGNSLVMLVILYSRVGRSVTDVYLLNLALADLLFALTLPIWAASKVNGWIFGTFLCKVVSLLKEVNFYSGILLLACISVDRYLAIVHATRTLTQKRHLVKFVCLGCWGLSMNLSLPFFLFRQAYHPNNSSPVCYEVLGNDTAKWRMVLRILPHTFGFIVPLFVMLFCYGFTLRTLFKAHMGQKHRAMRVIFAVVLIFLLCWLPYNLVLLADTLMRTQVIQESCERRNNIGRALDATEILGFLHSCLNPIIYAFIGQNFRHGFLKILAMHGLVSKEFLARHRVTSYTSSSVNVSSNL
# Description: [^125I] IL-8 (human recombinant, IM249) was obtained from Amersham Corp., Arlington Heights, Ill., with specific activity 2000 Ci/mmol. All other chemicals were of analytical grade. High levels of recombinant human CXCR1 and CXCR2 receptors were individually expressed in Chinese hamster ovary (CHO) cells as described in Holmes, et al., Science, 1991, 253, 1278, incorporated herein to the extent required to perform the present assay. The Chinese hamster ovary membranes were prepared according to Haour, et al., J. Biol. Chem., 249 pp 2195-2205 (1974), incorporated herein to the extent required to perform the present assay, except that the homogenization buffer was changed to 40 mM Tris-HCL pH 7.5 containing 1 mM MgSO4, 0.5 mM EDTA (ethylene-diaminetetra-acetic acid), 1 mM PMSF (α-toluene-sulphonyl fluoride), 2.5 mg/L Leupeptin and 0.1 mg/ml Aprotinin. Membrane protein concentration was determined using Bio-Rad Reagent using bovine serum albumin as a standard. All binding assays were conducted using Scintillation Proximity Assay (SPA assay) using wheatgerm agglutinin beads in a 96-well micro plate (optiplate 96, Packard) format. […] The 96-well plates were incubated on a shaking platform for 1 hour. At the end of the incubation the plates were spun for 5 min at 2000 RPM, and counted in a Top Count counter.
SMILES,IC50 [1],other results
"CC1=CCC[C@H]1NC(=O)Nc1ccc(C#N)c(S(=O)(=O)C(C)(C)C)c1O [Compound of Formula (F), (R)-1-(3-(tert-butylsulfonyl)-4-cyano-2-hydroxyphenyl)-3-(2-methylcyclopent-2-en-1-yl)urea]",0.2 nM,
"O=C1[O][Pt]2([NH][C@@H]3CCCC[C@H]3[NH]2)[O]C1=O [Oxaliplatin, oxaliplatin]",,"pIC50 inhibition of cell proliferation ([2]; oxaliplatin with vehicle, mean±SEM): 6.049±0.016; pIC50 inhibition of cell proliferation in the presence of Compound of Formula (A) ([2]; with Compound of Formula (A) 8.5 μM): 6.05±0.02; sciatic nerve conduction velocity between sciatic notch and ankle [3]: 35.99±0.59 m/s"
"CC1=CCC[C@H]1NC(=O)Nc1ccc(Cl)c(S(=O)(=O)[C@]2(C)CCOC2)c1O [Compound of Formula (C), 1-(4-chloro-2-hydroxy-3-(((R)-3-methyltetrahydrofuran-3-yl)sulfonyl)phenyl)-3-((R)-2-methylcyclopent-2-en-1-yl)urea]",1 nM,
"Cc1c(F)cccc1NC(=O)Nc1ccc(Cl)c(S(=O)(=O)C2CCCNC2)c1O (stereo not shown) [Compound of Formula (B), 1-(4-chloro-2-hydroxy-3-(piperidin-3-ylsulfonyl)phenyl)-3-(3-fluoro-2-methylphenyl)urea]",,IC50 [4]: 1000 nM
"CC1(S(=O)(=O)c2c(Cl)ccc(NC(=O)N[C@@H]3CCC=C3Cl)c2O)CCOCC1 [Compound of Formula (E), (R)-1-(4-chloro-2-hydroxy-3-((4-methyltetrahydro-2H-pyran-4-yl)sulfonyl)phenyl)-3-(2-chlorocyclopent-2-en-1-yl)urea]",1.58 nM,
"CC1=CCC[C@H]1NC(=O)Nc1ccc(Cl)c(S(=O)(=O)[C@H]2C[C@H](N(C)C)C2)c1O [Compound of Formula (H), 1-(4-chloro-3-((trans-3-(dimethylamino)cyclobutyl)sulfonyl)-2-hydroxyphenyl)-3-((R)-2-methylcyclopent-2-en-1-yl)urea]",1 nM,
"CC1=CCC[C@H]1NC(=O)Nc1ccc(Cl)c(S(=O)(=O)C(C)(F)F)c1O [Compound of Formula (I), (R)-1-(4-chloro-3-((1,1-difluoroethyl)sulfonyl)-2-hydroxyphenyl)-3-(2-methylcyclopent-2-en-1-yl)urea]",0.398 nM,
"CC1=CCC[C@H]1NC(=O)Nc1ccc(Cl)c(S(=O)(=O)[C@H]2C[C@H](N3CCCC3)C2)c1O [Compound of Formula (G), 1-(4-chloro-2-hydroxy-3-((trans-3-(pyrrolidin-1-yl)cyclobutyl)sulfonyl)phenyl)-3-((R)-2-methylcyclopent-2-en-1-yl)urea]",1 nM,
